# US20230219913A1, “Sulfamoylamide Derivatives” (Hoffmann-La Roche Inc., priority 2020, published 2023)
# Target: T1, human cGAS (residues 161-522) (Homo sapiens, UniProt Q8N884)
# T1 construct: Recombinantly expressed purified human cGAS (residues 161-522) was used at 25 nM; made in house
# Assay: Malachite Green assay to measure cGAS activity (coupled enzymatic assay, phosphate detection)
# Format: biochemical
# Conditions: recombinant human cGAS 25 nM; 80 μM ATP, 80 μM GTP, 100 nM ISD; 4 hour at RT
# Protocol: Malachite Green Assay to Measure cGAS Activity
# Compounds were tested for cGAS inhibition in a coupled enzymatic assay based on Phosphate detection by Malachite Green. Final assay conditions were 20 mM TRIS pH 7.5 (Applichem), 5 mM MgCl2 (Sigma) and 0.01% BSA (Sigma) supplemented with 80 μM ATP (Sigma), 80 μM GTP (Sigma) and 100 nM Interferon Stimulating DNA (ISD) (Microsynth). Recombinantly expressed purified human cGAS (residues 161-522) was used at 25 nM.
# All compounds were prepared as 10 mM stock solutions in DMSO and a 16 pt dilution series in DMSO with a dilution factor of 2.5 was prepared. 1 μL of DMSO dilution series was transferred to 32.3 μL reaction buffer, mixed by pipetting up/down, spun for 1 minute at 3000 rpm and was visually inspected for precipitation. 5 μL of 3-fold enzyme stock solution were transferred to an empty 384-well Black/Clear Flat Bottom Polystyrene NBS (Corning) rows 3-24. Rows 1-2 were filled with assay buffer. Plates were spun 10 seconds at 1000 rpm (164×g). 5 μL of compound intermediate dilution was added and mixed by pipetting up/down to rows 3-24. Rows 1-2 were filled with 3.1% DMSO assay buffer. Plates were spun 10 seconds at 1000 rpm (164×g). 5 μL 3-fold Nucleotide/DNA mix was added to all wells to start the reaction. Plates were spun 10 seconds at 1000 rpm (164×g) and incubated for 4 hour at room temperature (RT) in the dark. 5 μL 4 U/mL PPase (Sigma) were added to all wells. Plates spun 10 seconds at 1000 rpm (164×g). 10 μL BioMol green Solution (Enzo Life Sciences) was added to all wells. Plates spun 10 seconds at 1000 rpm (164×g) and incubated 30 minutes at RT in the dark. Absorbance data was collected 620 nm on an EnVision Multilable Reader (Perkin Elmer) and the following measurement settings were used: excitation filter photometric was 620 nm; excitation from the top; measurement height was 1 mm; number of flashes was 30; number of flashes integrated was 1.
# All plates are checked for abnormalities and outliers in the Blank Control (no protein, row 1) and the Neutral Control (no compound, row 2) are excluded using the 3*SD rule. Data was normalized to 0 and 100% by Blank and Neutral Control and each curve was fitted and judged using the 4 parameter logistic equation to determine the IC50 for cGAS inhibition.
# Table 1 provides IC50 values (04) for cGAS inhibition obtained for particular examples of the present invention as measured by the above-described assay.
# T1 sequence (Q8N884 161-522): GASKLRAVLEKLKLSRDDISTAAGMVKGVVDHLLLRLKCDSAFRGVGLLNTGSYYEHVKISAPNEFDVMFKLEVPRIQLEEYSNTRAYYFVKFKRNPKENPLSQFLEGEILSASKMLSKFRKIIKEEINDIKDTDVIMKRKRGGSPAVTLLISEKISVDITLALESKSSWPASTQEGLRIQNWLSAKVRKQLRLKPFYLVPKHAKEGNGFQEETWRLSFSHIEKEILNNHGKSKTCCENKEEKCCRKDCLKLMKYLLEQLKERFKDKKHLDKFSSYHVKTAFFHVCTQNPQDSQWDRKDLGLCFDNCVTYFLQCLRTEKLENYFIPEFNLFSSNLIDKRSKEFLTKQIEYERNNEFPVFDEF
row,SMILES,IC50 [µM]
1,"Cc1ccc(-c2ccc3c(c2)C(=O)NS(=O)(=O)N3CCc2ccccc2)c(Cl)c1 [Example 4, 6-(2-Chloro-4-methylphenyl)-1-phenethyl-1H-benzo[c][1,2,6]thiadiazin-4(3H)-one 2,2-dioxide]",17.2
2,"Cc1ccc(-c2ccc3c(c2)C(=O)NS(=O)(=O)N3Cc2ccncc2)c(Cl)c1 [Example 3, 6-(2-Chloro-4-methylphenyl)-1-(pyridin-4-ylmethyl)-1H-benzo[c][1,2,6]thiadiazin-4(3H)-one 2,2-dioxide]",14.2
3,"Cc1ccc(-c2ccc3c(c2)C(=O)NS(=O)(=O)N3Cc2ccccc2)c(Cl)c1 [Example 6, 1-Benzyl-6-(2-chloro-4-methylphenyl)-1H-benzo[c][1,2,6]thiadiazin-4(3H)-one 2,2-dioxide]",20.1

# Now from value to compound:
row,IC50 [µM],SMILES
1,9.6,"Cc1ccc(-c2ccc3c(c2)C(=O)NS(=O)(=O)N3CCN2CCOCC2)c(Cl)c1 [Example 2, 6-(2-Chloro-4-methylphenyl)-1-(2-morpholinoethyl)-1H-benzo[c][1,2,6]thiadiazin-4(3H)-one 2,2-dioxide]"
2,2.94,"Cc1ccc(-c2ccc3c(c2)C(=O)NS(=O)(=O)N3)c(Cl)c1 [Example 1, 6-(2-Chloro-4-methylphenyl)-1H-benzo[c][1,2,6]thiadiazin-4(3H)-one 2,2-dioxide]"
3,17.6,"Cc1ccc(-c2ccc3c(c2)C(=O)N(CCN2CCOCC2)S(=O)(=O)N3)c(Cl)c1 [Example 5, 6-(2-Chloro-4-methylphenyl)-3-(2-morpholinoethyl)-1H-benzo[c][1,2,6]thiadiazin-4(3H)-one 2,2-dioxide]"
